Reference: ChEMBL document CHEMBL5727696, “Tetrahydroisoquinoline derived PRMT5-inhibitors” (2020)

Assay: Revised Biochemical Assay: Full-length PRMT5 enzyme (NCBI Reference sequence NP_006100.2) was co-expressed with Hiss-MEP50 in insect cells and purified via Nickel immobilized metal affinity and gel filtration chromatography (“the enzyme”).The 6 μL reactions are run in Greiner brand black 384-well low volume assay plates. All reactions contained assay buffer (phosphate buffered saline, 0.01% (v/v) Tween-20, 0.01% (w/v) albumin from chicken egg white, 1 mM Dithiothreitol, 1 μM peptide substrate, 1 μM S-Adenosyl methionine, and 15 ng/reaction enzyme, with the enzyme being omitted from negative control reactions. Compounds were added in a volume of 100 nL from dilution series prepared in DMSO, positive and negative control reactions receiving the same volume DMSO without compound. The plates were sealed with adhesive seals and incubated for 4 hours at 37 degree Celsius. Reaction progress was measured using the Transcreener™ EPIGEN methyltransferase assay (BellBrook Labs, Madison, Wis.) as recommended by the manufacturer. To each reaction 2 μL detection mix were added, containing coupling enzymes, fluorescence polarisation tracer, and AMP antibody. Plates were incubated for 90 minutes before being read on a PerkinElmer EnVision plate reader in fluorescence polarisation mode.

N#Cc1ccc(C(=O)NCCC(O)CN2CCc3ccccc3C2)cc1 (stereo unspecified)
IC50: 3.98 µM
